Series [1] deals with T1, human MC1R (Homo sapiens, UniProt Q01726).
T1 construct: expressed in transfected cells
As to the kind of experiment: Melanocortin receptor radioligand binding (SPA, [125I]-NDP-α-MSH displacement), MC1R. The following applies: competitive binding, mean (± SEM) of at least three independent experiments, read-out: IC50 hMC1R binding.

Series [2] has as its target T2, human MC3R (Homo sapiens, UniProt P41968).
T2 construct: expressed in transfected cells
The experiment in a line: cAMP assay (LANCE) in T-Rex-293 cells expressing MC3R. The following applies: for EC50: cAMP assay, mean (± SEM) of at least three independent experiments, read-out: EC50 hMC3R cAMP. The class given is cell-based.

Series [3] has as its target T3, human MC4R (Homo sapiens, UniProt P32245).
T3 construct: expressed in transfected cells
The experiment in a line: Melanocortin receptor radioligand binding (SPA, [125I]-NDP-α-MSH displacement), MC4R. The following applies: competitive binding, mean (± SEM) of at least three independent experiments, read-out: IC50 hMC4R binding.

In series [4] the target is T3, human MC4R. The experiment in a line: cAMP assay (LANCE) in T-Rex-293 cells expressing MC4R. It counts as cell-based. The following applies: for EC50: cAMP assay, mean (± SEM) of at least three independent experiments, read-out: EC50 hMC4R cAMP.
Series [5] addresses T2, human MC3R. The experiment in a line: Melanocortin receptor radioligand binding (SPA, [125I]-NDP-α-MSH displacement), MC3R. The following applies: competitive binding, mean (± SEM) of at least three independent experiments, read-out: IC50 hMC3R binding.
Another series concerns the target T4, human MC5R (Homo sapiens, UniProt P33032).
T4 construct: expressed in transfected cells; host or cells: HEK293-6E suspension cells, transient expression; membranes
As to the kind of experiment: Melanocortin receptor radioligand binding (SPA, [125I]-NDP-α-MSH displacement), MC5R. The following applies: competitive binding, [125I]-NDP-α-MSH; mean (± SEM) of at least three independent experiments; read-out: IC50 hMC5R binding.

In series [6] the target is T1, human MC1R. As to the kind of experiment: cAMP assay (LANCE) in T-Rex-293 cells expressing MC1R. The class given is cell-based. The following applies: for Emax: T-REx-293, read-out: % Effect hMC1R cAMP; for EC50: mean (± SEM) of at least three independent experiments, read-out: EC50 hMC1R cAMP. On the technique in general: Changes in cAMP serve as a functional read-out for many G protein-coupled receptors.

The mark [7] stands for this setting: Emax (curve plateau), relative to NDP-α-MSH, NA = No Activity detected, threshold 20% effect.
Setting [8] is: other bond, N-methylmaleimide (RP-04; imine cyclization/1,3-dipolar cycloaddition), resin, 4 steps.
Where [9] appears, read: the molecule shown is the open-chain precursor, other bond, 31-membered ring, CH(OMe)3/Et3N, then 7/LiBr/Et3N, DMF, THF, resin, 25.0 °C, with chain assembly.

Values joined by “and” are separate entries in the source; they are usually repeats but may differ in a detail not shown here. Equal values may be shown once. Read-outs that look alike come from different tables or passages of the source. Where a SMILES comes first, the peptide text is derived from it.

T3 sequence (P32245 whole entry): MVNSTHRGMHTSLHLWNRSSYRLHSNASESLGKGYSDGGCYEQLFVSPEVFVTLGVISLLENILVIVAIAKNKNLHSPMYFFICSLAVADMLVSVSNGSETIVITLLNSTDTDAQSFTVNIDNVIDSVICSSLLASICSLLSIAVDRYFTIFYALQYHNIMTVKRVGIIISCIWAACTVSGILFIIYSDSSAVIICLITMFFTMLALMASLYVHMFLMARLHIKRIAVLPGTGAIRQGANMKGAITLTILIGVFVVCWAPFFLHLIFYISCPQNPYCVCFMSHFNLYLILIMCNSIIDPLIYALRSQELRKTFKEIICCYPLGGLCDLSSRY
T1 sequence (Q01726 whole entry): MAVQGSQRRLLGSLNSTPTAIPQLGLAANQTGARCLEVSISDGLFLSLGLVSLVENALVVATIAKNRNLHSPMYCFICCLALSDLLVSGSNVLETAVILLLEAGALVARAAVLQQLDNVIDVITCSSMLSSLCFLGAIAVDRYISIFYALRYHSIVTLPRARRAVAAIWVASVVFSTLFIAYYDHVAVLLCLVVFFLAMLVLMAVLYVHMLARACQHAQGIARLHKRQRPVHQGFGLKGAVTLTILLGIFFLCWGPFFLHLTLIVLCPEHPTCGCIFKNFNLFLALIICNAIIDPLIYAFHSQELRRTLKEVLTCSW
T2 sequence (P41968 whole entry): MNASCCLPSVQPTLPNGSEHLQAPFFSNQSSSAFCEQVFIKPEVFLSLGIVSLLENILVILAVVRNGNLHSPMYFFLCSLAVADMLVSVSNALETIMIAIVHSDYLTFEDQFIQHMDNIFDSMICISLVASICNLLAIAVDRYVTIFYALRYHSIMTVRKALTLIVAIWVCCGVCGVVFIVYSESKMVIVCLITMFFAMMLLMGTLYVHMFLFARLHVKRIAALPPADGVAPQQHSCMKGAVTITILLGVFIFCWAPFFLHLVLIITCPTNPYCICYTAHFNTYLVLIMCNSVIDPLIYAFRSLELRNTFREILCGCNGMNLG
T4 sequence (P33032 whole entry): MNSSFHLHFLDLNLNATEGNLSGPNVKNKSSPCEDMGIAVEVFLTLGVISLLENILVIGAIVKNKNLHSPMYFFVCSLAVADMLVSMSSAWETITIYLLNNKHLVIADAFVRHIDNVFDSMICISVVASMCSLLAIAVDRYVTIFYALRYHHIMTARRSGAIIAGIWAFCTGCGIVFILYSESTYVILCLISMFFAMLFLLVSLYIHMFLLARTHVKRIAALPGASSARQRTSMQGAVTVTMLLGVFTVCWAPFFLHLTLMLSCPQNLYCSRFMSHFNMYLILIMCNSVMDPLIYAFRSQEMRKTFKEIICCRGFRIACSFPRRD

As usually defined, the IC50 is the point on the concentration scale where inhibition reaches its midpoint. One may read the EC50 as the concentration giving half of the maximal effect. Regarding `C[C@@H]1NC(=O)[C@H](CC(N)=O)NC(=O)[C@@H](Cc2ccccc2)NC(=O)[C@@H](Cc2ccccc2)NC(=O)[C@H](CCCNC(=N)N)NC(=O)[C@@H](NC(=O)[C@@H](N)Cc2ccc(O)cc2)CSSC[C@@H](C(=O)N[C@@H](Cc2ccc(O)cc2)C(N)=O)NC(=O)[C@H](Cc2ccccc2)NC1=O` [compound 29, Y[CRffNAFC]Y, reference compound] (HELM PEPTIDE1{Y.C.R.[dF].[dF].N.A.F.C.Y.[am]}$PEPTIDE1,PEPTIDE1,2:R3-9:R3$$$V2.0), the IC50 worked out at 2.5 ± 0.5 µM at human MC1R [1], 7.1 ± 0.5 µM at human MC4R [3], 9.5 ± 0.9 µM on human MC3R [5] and 2.5 ± 0.3 µM at human MC5R. The EC50 at human MC3R [2] and on human MC4R [4] was over 100 µM in each case. The Emax on human MC1R [6] was found to be 84%. The “agonistic activity at MC1R (in words)” value on human MC1R [6] (cAMP assay, hMC1R) was “selective and almost full agonistic activity”.

Turning to `C[C@@H]1NC(=O)[C@H](CC(N)=O)NC(=O)[C@@H](Cc2ccccc2)NC(=O)[C@@H](Cc2ccccc2)NC(=O)[C@H](CCCNC(=N)N)NC(=O)[C@H](Cc2ccccc2)N(C)C(=O)[C@@H]2N[C@H](c3ccc(cc3)C(=O)NCCCC[C@@H](C(=O)N[C@@H](Cc3ccc(O)cc3)C(N)=O)NC(=O)[C@H](Cc3ccccc3)NC1=O)[C@@H]1C(=O)N(C)C(=O)[C@@H]12` [C1-major, [I-FRffNAFK ]Y], the IC50 was found to be 23 ± 1 µM on human MC1R [1], 26 ± 2 µM at human MC4R [3], 36 ± 1 µM at human MC3R [5] and 13 ± 1 µM on human MC5R. Also, the EC50 was over 100 µM at human MC3R [2], over 100 µM at human MC4R [4] and 1.8 ± 0.3 µM at human MC1R [6] (cAMP assay). Also, the Emax on human MC1R [6] came to 47%.

As for `CN1C(=O)[C@@H]2[C@H](C1=O)[C@H]1N[C@@H]2C(=O)N(C)[C@@H](Cc2ccccc2)C(=O)N[C@@H](CCCNC(=N)N)C(=O)N[C@H](Cc2ccccc2)C(=O)N[C@H](Cc2ccccc2)C(=O)N[C@@H](CC(N)=O)C(=O)N[C@H](C(=O)NCC(N)=O)CCCCNC(=O)c2ccc1cc2` [K2-minor, [I-FRffNK ]G], the IC50 on human MC1R [1], on human MC4R [3], on human MC3R [5] and at human MC5R was over 10 µM in each case. Besides, the EC50 at human MC3R [2], on human MC4R [4] and on human MC1R [6] (cAMP assay) was over 10 µM each time. `C[C@@H]1NC(=O)[C@H](CC(N)=O)NC(=O)[C@@H](Cc2ccccc2)NC(=O)[C@@H](Cc2ccccc2)NC(=O)[C@H](CCCNC(=N)N)NC(=O)[C@H](Cc2ccccc2)N(C)C(=O)C2NC(c3ccc(cc3)C(=O)NCCCC[C@@H](C(=O)N[C@@H](Cc3ccc(O)cc3)C(N)=O)NC(=O)[C@H](Cc3ccccc3)NC1=O)C1(C(=O)Nc3ccccc31)C2c1ccccc1` (some centres unmarked) [C2-minor, [X-FRffNAFK ]Y]: at human MC1R [6], the Emax came out at 36%. Consider `CN1C(=O)[C@@H]2N[C@H](c3ccc(cc3)C(=O)NCCCC[C@@H](C(=O)N[C@@H](Cc3ccc(O)cc3)C(N)=O)NC(=O)[C@H](Cc3ccccc3)NC(=O)[C@H](Cc3ccccc3)NC(=O)[C@H](CCCNC(=N)N)NC(=O)[C@@H]1Cc1ccccc1)[C@@H]1C(=O)N(c3ccccc3)C(=O)[C@@H]12` [N1-minor*, [II-FRFFK ]Y], for which, on human MC1R [6], the Emax amounted to 56%. For `CC(=O)N[C@@H](CCCNC(=N)N)C(=O)N[C@H]1CSSC[C@@H](C(N)=O)NC(=O)[C@H](Cc2c[nH]c3ccccc23)NC(=O)[C@H](CCCNC(=N)N)NC(=O)[C@@H](Cc2ccccc2)NC(=O)[C@H](Cc2c[nH]cn2)NC(=O)[C@@H](C)NC1=O` [RM493, reference compound], the “% Effect hMC3R cAMP” value at human MC3R [2] (setting [7]) is on record as 98%. Besides, the “% Effect hMC4R cAMP” value at human MC4R [4] (setting [7]) amounted to 100%. Besides, at human MC5R, the IC50 turned out to be 1.8 ± 0.3 µM. At human MC1R [6], the Emax amounted to 96%. Turning to `CN1C(=O)[C@@H]2N[C@H](c3ccc(cc3)C(=O)NCCCC[C@@H](C(=O)N[C@@H](Cc3ccc(O)cc3)C(N)=O)NC(=O)[C@@H](Cc3ccccc3)NC(=O)[C@@H](Cc3ccccc3)NC(=O)[C@H](CCCNC(=N)N)NC(=O)[C@@H]1Cc1ccccc1)[C@@H]1C(=O)N(c3ccccc3)C(=O)[C@@H]12` [O2-major, [II-FRffK ]Y], the Emax at human MC1R [6] was found to be 62%. Consider [N-Me-fused-di-pyrrolidine-NMeLDINNNK]G, for which the ring closure, yield after HPLC (other bond, 34-membered ring, imine formation, then N-methylmaleimide cycloaddition (RP-04), resin, 4 steps) was 3% and 20%. As to [N-Ph-fused-di-pyrrolidine-NMeFDINNNK]G, the ring closure, yield after HPLC (other bond, Fmoc removal (RP-03), imine cyclization/1,3-dipolar cycloaddition, N-phenylmaleimide (RP-04), resin, 4 steps) worked out at 5%.

In turn, [N-Me-fused-di-pyrrolidine-NMeFNNNK]G gave a ring closure, yield after HPLC under setting [8] of 21%. Under “other bond, Fmoc removal (RP-03), imine cyclization/1,3-dipolar cycloaddition, N-methylmaleimide (RP-04), resin, 4 steps”, [N-Me-fused-di-pyrrolidine-NMeFDINNNK]G came in with a ring closure, yield after HPLC of 24%.

As to `CCCC[C@H](NC(C)=O)C(=O)N[C@H]1CC(=O)NCCCC[C@@H](C(=O)O)NC(=O)[C@H](Cc2c[nH]c3ccccc23)NC(=O)[C@H](CCCNC(=N)N)NC(=O)[C@@H](Cc2ccccc2)NC(=O)[C@H](Cc2c[nH]cn2)NC1=O` [Bremelanotid (BreMT), Bremelanotid, reference compound], at human MC1R [6] (setting [7]), the “% Effect hMC1R cAMP” value stood at 97%. In turn, [N-Me-fused-di-pyrrolidine-NMeFRffNAK]Y yielded a ring closure, yield after HPLC under setting [8] of 2%. `CN1C(=O)[C@@H]2N[C@H](c3ccc(cc3)C(=O)NCCCC[C@@H](C(=O)NCC(N)=O)NC(=O)[C@H](Cc3ccccc3)NC(=O)[C@H](Cc3ccccc3)NC(=O)[C@H](CCCNC(=N)N)NC(=O)[C@@H]1Cc1ccccc1)[C@@H]1C(=O)N(c3ccccc3)C(=O)[C@@H]12` [N2-minor*, [II-FRFFK ]G]: the Emax on human MC1R [6] amounted to 36%. Turning to “[N-Ph-fused-di-pyrrolidine-NMeFRFFK]Y, N1”, the ring closure, yield after HPLC (other bond, imine formation, then N-phenylmaleimide cycloaddition (RP-04), resin, 4 steps) is 16% and 10%. Turning to “H-Gly-MePhe-Arg-Phe-Phe-Asn-Lys(4-formylbenzoyl)-Gly-resin?”, the ring closure, yield after HPLC under setting [9] came to 6%. Consider “H-Gly-MePhe-Arg-Ala-Asn-Lys(4-formylbenzoyl)-Gly-resin?”, for which the ring closure, yield after HPLC (the molecule shown is the open-chain precursor, other bond, 28-membered ring, CH(OMe)3/Et3N, then 6/LiBr/Et3N, DMF, THF, resin, 25.0 °C, with chain assembly) stood at 14%. As for “H-Gly-MePhe-Gly-Leu-Gly-Phe-Lys(4-formylbenzoyl)-Phe-resin?”, the ring closure, yield after HPLC under setting [9] is 5% and the ring closure, yield after HPLC (the molecule shown is the open-chain precursor, other bond, 31-membered ring, CH(OMe)3/Et3N, then 11/LiBr/Et3N, DMF, THF, resin, 25.0 °C, with chain assembly) turned out to be 4%.

In the case of `C[C@@H]1NC(=O)[C@H](CC(N)=O)NC(=O)[C@@H](Cc2ccccc2)NC(=O)[C@@H](Cc2ccccc2)NC(=O)[C@H](CCCNC(=N)N)NC(=O)[C@H](Cc2ccccc2)N(C)C(=O)[C@@H]2N[C@H](c3ccc(cc3)C(=O)NCCCC[C@@H](C(=O)N[C@@H](Cc3ccc(O)cc3)C(N)=O)NC(=O)[C@H](Cc3ccccc3)NC1=O)[C@]1(C(=O)Nc3ccccc31)[C@H]2c1ccccc1` [C2-major, [X-FRffNAFK ]Y], on human MC1R [6], the Emax worked out at 57%. [N-Ph-fused-di-pyrrolidine-NMeFRFFNAK]Y: the ring closure, yield after HPLC (other bond, N-phenylmaleimide (RP-04; imine cyclization/1,3-dipolar cycloaddition), resin, 4 steps) worked out at 2%. “[N-4-OMePh-fused-di-pyrrolidine-NMeFRffNK]G” gave a ring closure, yield after HPLC (other bond, Fmoc removal (RP-03), imine cyclization/maleimide 8 1,3-dipolar cycloaddition (RP-04), resin, 3 steps) of 4%. Take [pyrrolidine-NMeFDINNNK]G: where the note is “other bond, Fmoc removal (RP-03), imine cyclization/1,3-dipolar cycloaddition, dimethyl maleate (RP-04), resin, 4 steps”, the ring closure, yield after HPLC is 6% and 7%. Molecule “[N-Me-fused-di-pyrrolidine-NMeFFLK]G, P1” had a ring closure, yield after HPLC (other bond, imine formation, then N-methylmaleimide cycloaddition (RP-04), resin, with chain assembly) of 4%. With “H-Gly-MePhe-Arg-dPhe-dPhe-Asn-Lys(4-formylbenzoyl)-Tyr-resin?”, the ring closure, yield after HPLC under setting [9] came out at 3%.

Regarding “H-Gly-MePhe-Arg-dPhe-dPhe-Asn-Ala-Lys(4-formylbenzoyl)-Tyr-resin?”, where the note is “the molecule shown is the open-chain precursor, other bond, 34-membered ring, CH(OMe)3/Et3N, then 6/LiBr/Et3N, DMF, THF, resin, 25.0 °C, with chain assembly”, the ring closure, yield after HPLC worked out at 2%. Under “disulfide bond, 26-membered ring, DMSO/AcOH, DMSO/AcOH/H2O, 1.56 mM, 25.0 °C, 3 steps”, Y[CRFFNAFC]Y displayed a ring closure, yield after HPLC of 25%.
